Results reported in US8871900B2, “Fibroblast growth factor (FGF) analogs and uses thereof” (University of Rochester, priority 2008, dated 2014).
Peptide text beside a SMILES is read from it.

Tests used:
[1] = system: GI Na transport from mucosa to serosa; test: Electrolyte transport assay with 22Na flux (Ussing chamber); design: species or system mouse; details: after IR
Method: FGF-P improves GI function: The absorption of Na coupling with nutrition and blocking of pathogen invasion are the basic function of GI. […] To pin down the mechanism in cell/tissue level, the electrolyte transport assay with ^22Na flux was carried with Ussing chamber. […] Similarly, a “Dilution Potential” experiment was carried out and Goldman-Hodgkin-Katz (GHK) Voltage Equation used to determine relative paracellular permeability.

[2] = Blood cell counts after 4 or 5 Gy TBI; assay type: in vivo, mouse
Description: In parallel, the leucocytes and red cells were increased as compared to vehicle-treated mice that received the same IR dose (FIGS. 17C and D).

BM cells = test: 3H-TdR incorporation of normal and irradiated (0.5 Gy) BM cells; assay type: cell-based, mouse
Method: To determine if BM cells damaged by IR still responded to FGF-P, cells were plated in 96 round-bottom wells with serum-free ultraDoma-PF media and equally divided into two parts; one was not irradiated as control, and the other was irradiated with 0.5 Gy. They were then treated with equal amount of test agents within 1 hour post-IR. The following day, 0.2 uCi/well of ^3H-TdR was added and they were further cultured for 4 days before harvesting with a 96 well automatic harvester. […] There was no response to EPO.

Cdc42, Rac1, Mapk10, Cfl = test: Gene expression in irradiated BM cells (Luminex multiplex array); assay type: cell-based, mouse; details: treatment 20 min after 5 Gy IR, 6 hours, P<0.05
MCP-1, IL-6, TNFα = test: Plasma inflammatory molecules after sub-TBI (Luminex bead array); assay type: in vivo, mouse (Balb/c); details: Balb/c, 12 Gy sub-TBI, 3.5 days; FGF-P 2 mg/kg at 10 min post-IR and daily for two days
Method: Bead array technology has been developed to facilitate the study of cytokine expression profiles in normal tissues following radiation. Bead arrays have several advantages over ELISA. First, mice have a limited blood volume (0.3-0.4 ml of plasma/mouse). Each ELISA typically requires approximately 0.1 ml and thus only a limited number of assays are possible. Secondly, the time required to perform ELISAs one by one stresses the system in a large experiment and would be difficult to perform in the field in case of a radiological event. The Luminex bead array technology was used. The paired monoclonal antibodies, the highly-purified protein standards, and the more than 50 different cytokinespecific beads were purchased. In these studies, Balb/c mice received 12 Gy sub-TBI and then im injection of vehicle alone (0.2 ml of saline), FGF-P (2 mg/kg at 10 min post-IR and daily for two days), or Amifostine (200 mg/kg, either 30 min before IR, or 10 min after IR). The samples were collected 3.5 days after IR.
All three of these cytokines are associated with increased severity and progression of radiation-related inflammatory toxicity in mouse and man.

[3] = vs vehicle-treated mice, same IR dose

## CC(C)C[C@H](NC(=O)[C@H](C)NC(=O)[C@@H](NC(=O)[C@H](Cc1ccc(O)cc1)NC(=O)[C@H](Cc1c[nH]c2ccccc12)NC(=O)[C@H](CO)NC(=O)[C@H](CO)NC(=O)[C@H](Cc1ccc(O)cc1)NC(=O)[C@H](CCCCN)NC(=O)[C@H](CCCNC(=N)N)NC(=O)[C@H](CO)NC(=O)[C@H](CCCNC(=N)N)NC(=O)[C@H](Cc1ccc(O)cc1)NC(=O)[C@@H](N)CS)C(C)C)C(=O)N[C@@H](CCCCN)C(=O)N[C@@H](CCCNC(=N)N)C(=O)N[C@@H](CS)C(=O)O [FGF-P, CYRSRKYSSWYVALKRC] (H-CYRSRKYSSWYVALKRC-OH; N-terminus and C-terminus assumed)
[1]
  Na transport from mucosa to serosa: reversed
[2]; 4 or 5 Gy TBI
  platelet counts: accelerated recovery of platelet counts
[2]; [3]
  leucocytes: increased
  red cells: increased
BM cells; 0.5 Gy, treated within 1 hour post-IR, 3H-TdR
  response of irradiated BM cells: in the same fashion as normal BM cells
BM cells; 3H-TdR incorporation, serum-free media
  order of responsiveness: FGF-P (250-500 ng/ml)>native FGF2 (50 ng/ml), GM-CSF and TPO (100 ng/ml)
BM cells; normal and 0.5 Gy irradiated BM cells
  dose dependence of stimulatory effect: dose-dependent
Cdc42, Rac1, Mapk10, Cfl
  expression of Cdc42: reversed the IR-suppressed expression
  expression of Cfl (cofilin 1): suppressed towards normal
  expression of Mapk10: suppressed towards normal
  expression of Rac1: reversed the IR-suppressed expression
MCP-1, IL-6, TNFα
  plasma MCP-1, IL-6 and TNFα: normalized or near-normalized these factors
